PubChem BioAssay (NCI)
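Five compound concentrations were applied to cells in 96-well plates for 48 hours; endpoints were derived by simple linear interpolation of the resulting dose-response curve. TGI is the concentration that stops growth completely.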

Tests used:
Assay in all cases: DTP human tumour cell line panel, 48 h
NCI-H522 lung = test system: NCI-H522 lung
ACHN renal = test system: ACHN renal
XF 498 CNS = test system: XF 498 CNS
HL-60(TB) leukemia = test system: HL-60(TB) leukemia
UO-31 renal = test system: UO-31 renal
LOX IMVI melanoma = test system: LOX IMVI melanoma
EKVX NSCLC = test system: EKVX NSCLC
SK-MEL-2 melanoma = test system: SK-MEL-2 melanoma
IGROV1 ovarian = test system: IGROV1 ovarian
OVCAR-8 ovarian = test system: OVCAR-8 ovarian
OVCAR-3 ovarian = test system: OVCAR-3 ovarian
CAKI-1 renal = test system: CAKI-1 renal
HCT-15 colon = test system: HCT-15 colon
HOP-18 NSCLC = test system: HOP-18 NSCLC
NCI-H226 lung = test system: NCI-H226 lung
OVCAR-4 ovarian = test system: OVCAR-4 ovarian
M14 melanoma = test system: M14 melanoma
RPMI-8226 leukemia = test system: RPMI-8226 leukemia
TK-10 renal = test system: TK-10 renal
SN12C renal = test system: SN12C renal
HCC-2998 colon = test system: HCC-2998 colon
SK-MEL-5 melanoma = test system: SK-MEL-5 melanoma
LXFL 529 NSCLC = test system: LXFL 529 NSCLC
SNB-78 CNS = test system: SNB-78 CNS
HOP-92 NSCLC = test system: HOP-92 NSCLC
SF-268 CNS = test system: SF-268 CNS
OVCAR-5 ovarian = test system: OVCAR-5 ovarian
UACC-62 melanoma = test system: UACC-62 melanoma
SF-295 CNS = test system: SF-295 CNS
HCT-116 colon = test system: HCT-116 colon
RXF 393 renal = test system: RXF 393 renal
SF-539 CNS = test system: SF-539 CNS
SW-620 colon = test system: SW-620 colon
DMS 114 small cell lung = test system: DMS 114 small cell lung
SK-MEL-28 melanoma = test system: SK-MEL-28 melanoma
HOP-62 NSCLC = test system: HOP-62 NSCLC
SK-OV-3 ovarian = test system: SK-OV-3 ovarian
KM12 colon = test system: KM12 colon
DLD-1 colon = test system: DLD-1 colon
M19-MEL melanoma = test system: M19-MEL melanoma
MALME-3M melanoma = test system: MALME-3M melanoma
NCI-H460 lung = test system: NCI-H460 lung
UACC-257 melanoma = test system: UACC-257 melanoma
U251 CNS = test system: U251 CNS
RXF-631 renal = test system: RXF-631 renal
NCI-H23 lung = test system: NCI-H23 lung
MOLT-4 leukemia = test system: MOLT-4 leukemia
K-562 leukemia = test system: K-562 leukemia
CCRF-CEM leukemia = test system: CCRF-CEM leukemia
SNB-19 CNS = test system: SNB-19 CNS
HT29 colon = test system: HT29 colon
786-0 renal = test system: 786-0 renal
A549 NSCLC = test system: A549 NSCLC
COLO 205 colon = test system: COLO 205 colon
A498 renal = test system: A498 renal
SNB-75 CNS = test system: SNB-75 CNS
SR leukemia = test system: SR leukemia
DMS 273 small cell lung = test system: DMS 273 small cell lung
KM20L2 colon = test system: KM20L2 colon

Measured: TGI

CCOC(=O)C(=O)Nc1cccc(Cl)c1C
not listed: A498 renal | SNB-75 CNS | SR leukemia | DMS 273 small cell lung | KM20L2 colon
> 100 µM: all other assays above

O=C1NC(=O)C2C1c1[nH]c3ccccc3c1C1CCCC12 (centres undefined)
6.85 µM: XF 498 CNS
22.6 µM: U251 CNS
29.5 µM: DMS 114 small cell lung
11.8 µM: SF-539 CNS
8.66 µM: SK-MEL-5 melanoma
24.4 µM: RXF 393 renal
64.5 µM: OVCAR-8 ovarian
45.4 µM: SK-OV-3 ovarian
5.64 µM: OVCAR-3 ovarian
39.1 µM: SF-268 CNS
51.7 µM: NCI-H226 lung
12.6 µM: DMS 273 small cell lung
26.6 µM: A498 renal
32.1 µM: COLO 205 colon
83.8 µM: HOP-18 NSCLC
6.29 µM: SNB-75 CNS
6.56 µM: SF-295 CNS
not listed: NCI-H522 lung | HL-60(TB) leukemia | SK-MEL-2 melanoma | CAKI-1 renal | HOP-92 NSCLC | HCT-116 colon | HOP-62 NSCLC | UACC-257 melanoma | KM20L2 colon
> 100 µM: all other assays above

CC(=O)NC1C(O)CC(OCCCSCCN)(C(=O)O)OC1C(O)C(O)CO (centres undefined)
not listed: NCI-H522 lung | UO-31 renal | OVCAR-3 ovarian | UACC-62 melanoma | HOP-62 NSCLC | SK-OV-3 ovarian | M19-MEL melanoma | K-562 leukemia | 786-0 renal
> 100 µM: all other assays above
